Test results: ChEMBL document CHEMBL1141127, “Investigation of the binding determinants of phosphopeptides targeted to the SRC homology 2 domain of the signal transducer and activator of transcription 3. Development of a high-affinity peptide inhibitor” (J Med Chem, 2005)
Square brackets hold non-standard residues; d marks the D form. Peptide text beside a SMILES is read from it. pY = N[C@@H](Cc1ccc(OP(=O)(O)O)cc1)C(=O)O; Dip = N[C@H](C(=O)O)C(c1ccccc1)c1ccccc1; NMeL = CN[C@@H](CC(C)C)C(=O)O

Assays:
[1] = target: T1, Signal transducer and activator of transcription 3 (Homo sapiens, UniProt P40763); experiment: Inhibitory concentration against signal transducer and activator of transcription 3 (stat3) using 5-carboxyfluoresceinyl-Ala-Tyr(PO3H2)-Leu-Pro-Gln-Thr-Val-NH2 by FP assay
T1 sequence (P40763 whole entry): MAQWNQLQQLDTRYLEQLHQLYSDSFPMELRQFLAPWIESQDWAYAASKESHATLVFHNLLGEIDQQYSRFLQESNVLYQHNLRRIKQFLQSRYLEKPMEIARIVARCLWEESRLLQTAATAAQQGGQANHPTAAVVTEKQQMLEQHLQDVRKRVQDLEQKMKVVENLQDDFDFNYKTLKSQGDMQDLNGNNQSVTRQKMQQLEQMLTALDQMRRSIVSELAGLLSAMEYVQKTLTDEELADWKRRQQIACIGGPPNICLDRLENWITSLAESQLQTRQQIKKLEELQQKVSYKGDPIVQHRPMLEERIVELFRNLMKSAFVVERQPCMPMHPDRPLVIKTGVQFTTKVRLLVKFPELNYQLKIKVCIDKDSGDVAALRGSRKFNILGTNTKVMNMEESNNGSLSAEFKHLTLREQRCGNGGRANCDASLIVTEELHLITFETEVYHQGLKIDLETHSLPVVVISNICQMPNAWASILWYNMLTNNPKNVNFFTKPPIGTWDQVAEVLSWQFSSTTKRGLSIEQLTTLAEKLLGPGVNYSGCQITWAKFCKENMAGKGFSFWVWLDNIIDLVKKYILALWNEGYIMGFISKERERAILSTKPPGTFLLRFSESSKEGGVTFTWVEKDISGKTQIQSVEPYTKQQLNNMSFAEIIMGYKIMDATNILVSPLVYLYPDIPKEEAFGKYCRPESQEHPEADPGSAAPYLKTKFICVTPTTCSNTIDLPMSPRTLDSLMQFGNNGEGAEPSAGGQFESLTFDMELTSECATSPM

[2] = target: T1, Signal transducer and activator of transcription 3; experiment: Inhibitory concentration against signal transducer and activator of transcription 3 (stat3) by (EMSA) electrophoretic mobility shift assay

Structure (SMILES) | IC50 [1] | IC50 [2]
CC(=O)N[C@@H](Cc1ccc(OP(=O)(O)O)cc1)C(=O)N[C@@H](CC(C)C)C(=O)N1CCC[C@@H]1C(=O)N[C@@H](CCC(N)=O)C(=O)N[C@H](C(N)=O)[C@@H](C)O | > 100000 nM | –
CC(=O)N[C@@H](Cc1ccc(OP(=O)(O)O)cc1)C(=O)N[C@@H](CC(C)C)C(=O)N1CCC[C@H]1C(=O)N[C@@H](CCC(N)=O)C(=O)N[C@H](C(N)=O)[C@@H](C)O | – | 600 nM
CC(=O)N[C@@H](Cc1ccc(OP(=O)(O)O)cc1)C(=O)N[C@@H](CC(C)C)C(=O)N1CCC[C@H]1C(=O)N[C@@H](CCC(N)=O)C(N)=O (Ac-[pY]LPQ-NH2) | – | 1000 nM
CC(=O)N[C@@H](Cc1ccc(OP(=O)(O)O)cc1)C(=O)N[C@H](C(=O)N1CCC[C@H]1C(=O)N[C@@H](CCC(N)=O)C(=O)N[C@H](C(N)=O)[C@@H](C)O)C(c1ccccc1)c1ccccc1 (Ac-[pY][Dip]PQT-NH2) | > 100000 nM | –
CC(=O)N[C@@H](Cc1ccc(OP(=O)(O)O)cc1)C(=O)N(C)[C@@H](CC(C)C)C(=O)N1CCC[C@H]1C(=O)N[C@@H](CCC(N)=O)C(=O)N[C@H](C(N)=O)[C@@H](C)O (Ac-[pY][NMeL]PQT-NH2) | > 100000 nM | –
